{
  "source": "patent US11229709B2",
  "about": "“Dendrimer drug conjugates for sustained intra-articular delivery” (Massachusetts Institute of Technology, priority 2017, dated 2022)",
  "key": {"[1]": {"experiment": "Joint residence time after intra-articular injection (IVIS imaging)", "settings": "rats, calculated from half-life, dose injected and drug EC50", "from_the_text": "Prior to injection, knee joints were shaved and disinfected with iodine scrub and 70% ethanol, 3 times. Rats were serially imaged at timepoints using a IVIS Spectrum (Perkin-Elmer) instrument at 640/680 nm. Images were quantified by drawing an anatomical Region of Interest (ROI) around the knee joint, applying to each image, and measuring radiant efficiency within the ROI on Living Image (Perkin-Elmer) software. Data for each treatment group was fit to a single exponential decay curve (FIG. 4C) with a terminal plateau assigned to all groups based on imaging an untreated rat."}, "[2]": {"tested_on": "medial tibia cartilage degeneration", "experiment": "Rat surgical osteoarthritis model ACLT+MMx, histological analysis", "assay_type": "in vivo", "design": "mean area of degenerated medial tibial cartilage, % of total cartilage area: dose or concentration left out as unconfirmed", "settings": "single intra-articular injection 48 hours after surgery", "protocol": "(§1) Skeletally mature male Sprague-Dawley rats of 12 weeks of age (350-400 g, Taconic) were injured by the Anterior Cruciate Ligament Transection and Partial Medial Meniscectomy (ACLT+pMMx) method to induce arthritis. […] Treatments were given by intra-articular injection into the affected joint 48 hours after surgery, using a joint concentration of 6 M IGF-1. Rats were sacrificed for analysis 30 days after surgery.\nHistological processing and analysis was performed according to the guidelines for rat surgical models by the Osteoarthritis Research Society International (OARSI) histopathology initiative (Gerwin et al, Osteoarthritis and Cartilage, 2010, Schmitz et al, Osteoarthritis and Cartilage 2010). Six 250 μm frontal step sections were taken from the central ˜1.5 mm of the joint and stained with Toluidine Blue/Fast Green. Aggrecan in healthy cartilage is stained blue (dark) and collagens in bone or degenerated cartilage are stained green (light). The section with the most severe medial tibia cartilage lesion was identified by a blinded investigator and used for all further analysis. Sections were scored quantitatively for degeneration in a blinded manner by histomorphometry techniques based on OARSI histopathology initiative guidelines.\nDegenerated tissue was defined as >50% cell death and loss of toluidine blue staining. […]"}, "[3]": {"tested_on": "osteophytes", "experiment": "Rat surgical osteoarthritis model ACLT+MMx, micro-computed tomography osteophyte volume", "assay_type": "in vivo", "settings": "single injection after surgery", "protocol": "as §1\nAfter fixation and before decalcification, excised rat joints were attached to the bore of a microCT scanner (GE eXplore CT 120) and scanned at 0.03° angles for a total of 1200 scans over a time period of 1.5 hours. Scans used an 80 kV x-ray potential, 32 mA current, and a 100 ms integration time. Image data sets were reconstructed into regions of interest encompassing single joints using Microview software (Parallax Innovations).\n3D positioning data were used to quantify total volume of osteophytes (bone spurs) on each joint. 3D DICOM analysis software (Osirix MD) was used by a blinded investigator to re-section the images into a uniform frontal plane, perpendicular to an axis tangential to the femoral condyles and tibial plateau in the sagittal plane and an axis bisecting the femoral condyles and tibial plateau in the transverse plane. […] The sections were then reconstructed to 3D, and total osteophyte ROI volume was calculated for each rat. […]"}},
  "data": [
    {"substance": "insulin like growth factor 1 [IGF-1]", "values": [
      {"measurement": "time at relevant (therapeutic) doses in the joint", "setting": "[1]", "result": 3, "unit": "days"},
      {"measurement": "mean width of cartilage degeneration at the cartilage surface (0% tissue depth)", "setting": "[2]; 30 days after surgery", "result": 1390, "unit": "μm"},
      {"measurement": "mean area of degenerated medial tibial cartilage, % of total cartilage area", "setting": "[2]; joint concentration of IGF-1, 30 days after surgery", "result": 19.7, "unit": "%"},
      {"measurement": "reduction of osteophyte burden versus untreated", "setting": "[3]", "result": "~50", "unit": "%"},
      {"measurement": "mean total osteophyte volume (burden)", "setting": "[3]; 30 days after surgery, microCT", "result": 0.60, "unit": "mm^3"}
    ]}
  ]
}
